Measurements: US20250101338A1, “BIOMASS DERIVED SURFACE-ACTIVE COMPOSITIONS AND PRODUCTS” (Cambridge Glycoscience Ltd, priority 2021, published 2025)

How the values were obtained:
Format in all cases: physicochemical
[1] = Aqueous hydrolytic stability by UPLC-MS (Example 73); settings: 0.5 mg/mL
Procedure: Determination of aqueous stability of the test compounds was performed using UPLC-MS. A test compound 10 mg/mL stock solution was prepared by dissolving Example 11 composition (N-decyl-N-acetylxylosylamine) (inventive surface-active composition) in DMSO. Buffer solutions, comprised of simple, commercially-available acidic or basic substances in deionized water were prepared at pH 1, pH 3, pH 4, pH 5, pH 6, pH 7, pH 9, pH 11 and pH 13.

[2] = Lipophilic substances solubilization test, lemongrass oil (Example 71); settings: 2 mL of 5 wt % aqueous solution, stepwise addition of 2.5 μL, duplicate
Procedure: After each addition, the sample was agitated with a vortex mixture for 60 s and left to stand for 5 min. If no heterogenous phase was observed visually, the oil was said to be fully soluble. If a heterogenous, immiscible biphasic or emulsion was visible, then the saturation limit for that surface-active component was said to have been exceeded. Each surface-active composition was tested in duplicate.

[3] = Relative viscosity, gravity flow time (Example 74); settings: 10 mL of 10 wt % sodium dodecyl sulfate + 0.3 g NaCl + 0.655 mL of 30 wt % test solution, 27° C., triplicate
Procedure: The time taken for precisely 3 mL of testing mixture to pass out of the […] by gravity was recorded. The test was repeated in triplicate. Averaged results are depicted in FIG. 20 and table 9. It was unexpected that example 11 composition recorded such high viscosity over example 14 composition, which differs by a slightly smaller alkyl chain (octyl instead of decyl).

[4] = Aqueous solubility noted at preparation
Procedure: Solid N-decyl xylosylamine (7.6 g) was suspended in 2-propanol (60 mL) and triethylamine (2 equiv.) then acetic anhydride (1.6 equiv.) was added slowly. Stirring continued at ambient temperature for 10 h. Water (50 mL) was added, and the mixture stirred for 5 min. Dichloromethane (50 mL) was added and the phases separated. The aqueous phase was extracted with additional DCM. The combined organic phase washed with saturated aqueous NH4Cl solution, then the aqueous phase extracted with additional DCM. The combined organic phases were dried over anhydrous magnesium sulfate, filtered, then concentrated under reduced pressure to give a yellow oil. The oil was purified by FCC eluting with MeOH (2-15%) in DCM (120 g normal phase silica cartridge with wet loading). Fractions containing the product were combined and evaporated to dryness to give the desired product (4.1 g, 49%) as a yellow gum. LC-MS (Method A), Rt=1.69 min, [M+H]+=332.2. The gum product can be dissolved in water to form solutions of 50 wt % or greater.
The process was carried out in essentially the same manner as in Example 11 a) step (ii) but using the solid product of Example 11 reaction c) step (i) and the crude product was instead purified by FCC eluting with MeOH (2-13%) in DCM. There were obtained 1.4 g of cream gum product. LC-MS (Method A), Rt=1.87 min, [M+H]^+=360.5.

[5] = Dynamic foam tests (Example 69); settings: 5 mL of 0.5 wt % aqueous solution, 40 cm^3 air bubbled at 17 cm^3/min
Procedure: The intensity and approximate decay-rate for the foaming behavior of the surface-active compositions in dilute aqueous solution was determined by dosing 5 mL of 0.5 wt % aqueous solution of surface-active composition to a vertically-aligned 50 m plastic serological pipette (“Stripette”). Air (40 cm^3) was bubbled through the surface-active composition solution at a rate of 17 cm^3/min via a syringe pump and the foam height upon complete addition of air recorded. The foam height was also recorded again 5 min after complete addition of air, 10 min after complete addition of air, 15 m after complete addition of air, 30 min after complete addition of air, 1 hour after complete addition of air and finally 2 hours after complete addition of air.

[6] = Flash foam generation test (Example 70); settings: 20 mg in 4 mL deionized water (10 wt % [sic]), 2 mL shaken 30 s in 15 mL tube, duplicate average
Procedure: 20 mg of each surface-active composition for testing was dissolved in deionized water (4 mL) to give a 10 wt % solution, 2 mL was added to a 15 mL FALCON tube. Each falcon tube was secured in a holder before being vigorously shook for 30 seconds. The initial foam height and structure was noted. The foam height was then noted at 5 min, 10 min, 15 min, 30 min, 45 min, 1 hr and 2 hr after the initial measurement. The experiment was repeated in duplicate. Averaged results are depicted in table 5 and FIG. 11.

[7] = Water in oil emulsion stability test (Example 65); settings: 0.5 mL water with 2 wt % substance + 1.5 mL sunflower oil, vortex 30 s, visual inspection
Procedure: 0.5 mL deionized water containing 2 wt % of the stated inventive or comparative compound was added to 1.5 mL commercial, food-grade sunflower oil, in a sample vial. The vials were each agitated with a IKA Vortex mixture for 30 seconds. The vials were left to stand and inspected visually for emulsion quality after 5 minutes, 1 hour, 4 hours and finally 24 h (FIG. 14 and FIG. 15). […] The results also show an unexpected increase in emulsifying performance for the inventive compositions comprising oligosaccharide mixture-derived surface-active agents (such as example 4-6 compositions) compared with those derived from a single monomeric sugar (xylose) alone (such as example 12 and 13 compositions).

[8] = Critical micellular concentration determination (Example 78); settings: deionized water
Procedure: Stock solutions were prepared of known weight concentration (range spanning 0.005 wt %-5.000 wt %) of inventive surface-active compositions (by solution of the appropriate weight of example composition in deionized water). For reference, the surface tension of deionized water in the absence of a surface-active composition is 73 mN. […] The surface tensions of the solutions at the concentration of the CMC were also noted. Results are shown in table 10 and graphical results are depicted in FIG. 22.

For `CCCCCCCCCCN(C(C)=O)C1OC[C@@H](O)[C@H](O)[C@H]1O` (stereo partly shown) [Example 11 composition, N-decyl N-acetyl xylosylamine], the “Stability During 1-week (daily monitoring) (% of original concentration lost to degradation)” value ([1]; Buffer pH 1, 25° C.) was “(<50%)”, the “Stability During 12-hour Assay (% of original concentration lost to degradation)” value ([1]; Buffer pH 1, 25° C.) was “(<1%) degradation” and the “Stability During 1-week (daily monitoring) (% of original concentration lost to degradation)” value ([1]; Buffer pH 3, 25° C.) was “(<0.1%) degradation”. For the same compound, the “Stability During 12-hour Assay (% of original concentration lost to degradation)” value ([1]; Buffer pH 3, 25° C.) was “(<0.1%) degradation”, the “Stability During 1-week (daily monitoring)” value ([1]; Buffer pH 4, 25° C.) was “Full stability” and the “Stability During 12-hour Assay” value ([1]; Buffer pH 4, 25° C.) was “Full stability”. For the same compound, the “Stability During 1-week (daily monitoring)” value ([1]; Buffer pH 5, 25° C.) was “Full stability”, the “Stability During 12-hour Assay” value ([1]; Buffer pH 5, 25° C.) was “Full stability” and the “Stability During 1-week (daily monitoring)” value ([1]; Buffer pH 6, 25° C.) was “Full stability”. For the same compound, the “Stability During 12-hour Assay” value ([1]; Buffer pH 6, 25° C.) was “Full stability”, the “Stability During 1-week (daily monitoring)” value ([1]; Buffer pH 7, 25° C.) was “Full stability” and the “Stability During 12-hour Assay” value ([1]; Buffer pH 7, 25° C.) was “Full stability”. For the same compound, the “Stability During 1-week (daily monitoring)” value ([1]; Buffer pH 9, 25° C.) was “Full stability”, the “Stability During 12-hour Assay” value ([1]; Buffer pH 9, 25° C.) was “Full stability” and the “Stability During 1-week (daily monitoring) (% of original concentration lost to degradation)” value ([1]; Buffer pH 11, 25° C.) was “(<0.1%) degradation”. For the same compound, the “Stability During 12-hour Assay (% of original concentration lost to degradation)” value ([1]; Buffer pH 11, 25° C.) was “(<0.1%) degradation”, the “Stability During 1-week (daily monitoring) (% of original concentration lost to degradation)” value ([1]; Buffer pH 13, 25° C.) was “(<10%)” and the “Stability During 12-hour Assay (% of original concentration lost to degradation)” value ([1]; Buffer pH 13, 25° C.) was “(<0.1%) degradation”. The “Maximum volume of lemongrass oil solubilized” value [2] was 8.75 µL, the “Average time (for 3 mL to pass out of the stripette by gravity)” value [3] was 270.3 s and the “Concentration of solutions formed in water” value ([4]; gum product dissolved in water) was no less than 50 wt %. For the same compound, the “Aqueous solubility (in words)” value ([4]; water, room temperature) was “excellent aqueous solubility”, the “Volume of foam after given time” value ([5]; 0 min) was 36.0 cm^3 and the “Volume of foam after given time” value ([5]; 5 min) was 2.0 cm^3. The “Volume of foam after given time” value ([5]; 15 min) was 2.0 cm^3, the “Volume of foam after given time” value ([5]; 30 min) was 2.0 cm^3 and the “Volume of foam after given time” value ([5]; 1 h) was 2.0 cm^3. For the same compound, the “Volume of foam after given time” value ([5]; 2 h) was 2.0 cm^3, the “Volume of foam after given time” value ([6]; 0 min) was 8.3 cm^3 and the “Volume of foam after given time” value ([6]; 5 min) was 4.8 cm^3. The “Volume of foam after given time” value ([6]; 15 min) was 2.5 cm^3, the “Volume of foam after given time” value ([6]; 30 min) was 2.3 cm^3 and the “Volume of foam after given time” value ([6]; 1 h) was 2.0 cm^3. The “Volume of foam after given time” value ([6]; 2 h) was 2.0 cm^3, the “Time inspected by which the emulsion first appeared dispersed” value [7] was 24 h and the “Solution Surface tension at CMC” value [8] was 36 mN. It also gave a CMC ([8]; from surface tension at 0.005-5.000 wt %) of 0.04 wt %.
